Experimental data from PubChem BioAssay AID1259407 (Chemical Carcinogenesis Research Information System (CCRIS), 2018).
Activity calls are given as the source filed them. No rule for the calls is given here.

System: CCRIS mutagenicity, Ames/micronucleus/aberration tests
Experiment: CCRIS mutagenicity studies
[1] = Test System: AMES SALMONELLA TYPHIMURIUM, Strain/Indicator: TA98, Metabolic Activation: NONE, Method: STANDARD PLATE
[2] = Test System: AMES SALMONELLA TYPHIMURIUM, Strain/Indicator: TA100, Metabolic Activation: NONE, Method: STANDARD PLATE

Q: How did the mutagenic call [1] turn out when `C[Si]1(C)O[Si](C)(C)O[Si](C)(C)O[Si](C)(C)O[Si](C)(C)O1` was run?
A: inactive; negative

Q: What about the mutagenic call (Test System: AMES SALMONELLA TYPHIMURIUM, Strain/Indicator: TA98, Metabolic Activation: RAT LIVER S-9, AROCLOR 1254, Method: STANDARD PLATE) of the same molecule?
A: inactive; negative

Q: What about the mutagenic call [2] of the same molecule?
A: inactive; negative

Q: What about the mutagenic call (Test System: AMES SALMONELLA TYPHIMURIUM, Strain/Indicator: TA100, Metabolic Activation: RAT LIVER S-9, AROCLOR 1254, Method: STANDARD PLATE) of the same molecule?
A: inactive; negative

Q: What about the mutagenic call (Test System: AMES SALMONELLA TYPHIMURIUM, Strain/Indicator: TA1535, Metabolic Activation: NONE, Method: STANDARD PLATE) of the same molecule?
A: inactive; negative

Q: What about the mutagenic call (Test System: AMES SALMONELLA TYPHIMURIUM, Strain/Indicator: TA1535, Metabolic Activation: RAT LIVER S-9, AROCLOR 1254, Method: STANDARD PLATE) of the same molecule?
A: inactive; negative

Q: What about the mutagenic call (Test System: AMES SALMONELLA TYPHIMURIUM, Strain/Indicator: TA1537, Metabolic Activation: NONE, Method: STANDARD PLATE) of the same molecule?
A: inactive; negative

Q: What about the mutagenic call (Test System: AMES SALMONELLA TYPHIMURIUM, Strain/Indicator: TA1537, Metabolic Activation: RAT LIVER S-9, AROCLOR 1254, Method: STANDARD PLATE) of the same molecule?
A: inactive; negative

Q: And the mutagenic call (Test System: AMES SALMONELLA TYPHIMURIUM, Strain/Indicator: TA1538, Metabolic Activation: NONE, Method: STANDARD PLATE)?
A: inactive; negative

Q: What about the mutagenic call (Test System: AMES SALMONELLA TYPHIMURIUM, Strain/Indicator: TA1538, Metabolic Activation: RAT LIVER S-9, AROCLOR 1254, Method: STANDARD PLATE) of the same molecule?
A: inactive; negative

Q: What about the mutagenic call (Test System: E. COLI, Strain/Indicator: P3078 POLA, Metabolic Activation: NONE, Method: SPOT TEST) of the same molecule?
A: inactive; negative

Q: And the mutagenic call (Test System: E. COLI, Strain/Indicator: P3078 POLA, Metabolic Activation: RAT LIVER S-9, AROCLOR 1254, Method: SPOT TEST)?
A: inactive; negative

Q: And the mutagenic call (Test System: E. COLI, Strain/Indicator: W3110, Metabolic Activation: NONE, Method: SPOT TEST)?
A: inactive; negative

Q: And the mutagenic call (Test System: E. COLI, Strain/Indicator: W3110, Metabolic Activation: RAT LIVER S-9, AROCLOR 1254, Method: SPOT TEST)?
A: inactive; negative

Q: And the mutagenic call (Test System: MOUSE LYMPHOMA, Strain/Indicator: L5178Y (TK+/TK-), Metabolic Activation: NONE, Method: SUSPENSION/PLATE)?
A: inactive; negative

Q: What about the mutagenic call (Test System: MOUSE LYMPHOMA, Strain/Indicator: L5178Y (TK+/TK-), Metabolic Activation: RAT, LIVER, S-9, Method: SUSPENSION/PLATE) of the same molecule?
A: inactive; negative

Q: `CC=C(C)C(=O)O[C@H]1[C@H](OC(C)=O)[C@]2(CO)[C@H](O)C[C@]3(C)C(=CC[C@@H]4[C@@]5(C)CC[C@@H](O[C@@H]6O[C@H](C(=O)O)[C@@H](O[C@@H]7O[C@H](CO)[C@@H](O)[C@H](O)[C@H]7O)[C@H](O)[C@H]6O[C@@H]6O[C@H](CO)[C@@H](O)[C@H](O)[C@H]6O)[C@](C)(CO)[C@@H]5CC[C@]43C)[C@@H]2CC1(C)C` was tested. Which mutagenic call (Test System: AMES SALMONELLA TYPHIMURIUM, Strain/Indicator: TA97, Metabolic Activation: NONE, Method: STANDARD PLATE) did it give?
A: inactive; negative

Q: What about the mutagenic call (Test System: AMES SALMONELLA TYPHIMURIUM, Strain/Indicator: TA97, Metabolic Activation: RAT, LIVER, S-9, AROCLOR 1254, Method: STANDARD PLATE) of the same molecule?
A: inactive; negative

Q: And the mutagenic call [1]?
A: inactive; negative

Q: What about the mutagenic call (Test System: AMES SALMONELLA TYPHIMURIUM, Strain/Indicator: TA98, Metabolic Activation: RAT, LIVER, S-9, AROCLOR 1254, Method: STANDARD PLATE) of the same molecule?
A: inactive; negative

Q: What about the mutagenic call [2] of the same molecule?
A: inactive; negative

Q: And the mutagenic call (Test System: AMES SALMONELLA TYPHIMURIUM, Strain/Indicator: TA100, Metabolic Activation: RAT, LIVER, S-9, AROCLOR 1254, Method: STANDARD PLATE)?
A: inactive; negative

Q: What about the mutagenic call (Test System: AMES SALMONELLA TYPHIMURIUM, Strain/Indicator: TA102, Metabolic Activation: NONE, Method: STANDARD PLATE) of the same molecule?
A: inactive; negative

Q: And the mutagenic call (Test System: AMES SALMONELLA TYPHIMURIUM, Strain/Indicator: TA102, Metabolic Activation: RAT, LIVER, S-9, AROCLOR 1254, Method: STANDARD PLATE)?
A: inactive; negative

Q: How did the mutagenic call (Test System: AMES SALMONELLA TYPHIMURIUM, Strain/Indicator: TA98, Metabolic Activation: NONE, Method: PREINCUBATION) turn out when `C/C(O)=C(\N=O)C(=O)N(c1ccccc1)N(C)N=O` was run?
A: active; positive

Q: What about the mutagenic call (Test System: AMES SALMONELLA TYPHIMURIUM, Strain/Indicator: TA98, Method: PREINCUBATION) of the same molecule?
A: active; positive

Q: And the mutagenic call (Test System: AMES SALMONELLA TYPHIMURIUM, Strain/Indicator: TA100, Metabolic Activation: NONE, Method: PREINCUBATION)?
A: active; positive

Q: What about the mutagenic call (Test System: AMES SALMONELLA TYPHIMURIUM, Strain/Indicator: TA100, Method: PREINCUBATION) of the same molecule?
A: active; positive

Q: `O[C@@H]1C=Cc2c(ccc3cc4ccccc4cc23)[C@H]1O` was tested. Which mutagenic call (Test System: CHINESE HAMSTER V-79, Strain/Indicator: V-79/OUABAIN, Metabolic Activation: CELL-MEDIATED, Method: STANDARD PLATE) did it give?
A: active; positive
